Article PMC11480411, “Mucosal sugars delineate pyrazine vs pyrazinone autoinducer signaling in Klebsiella oxytoca” (Nature Communications, 2024)

Legend:
Experiment in all cases: PRESTO-Tango GPCR screen
Assay type in all cases: cell-based
Settings in all cases: 100 µM
CNR1 = target: T1, CNR1 (Homo sapiens, UniProt P21554)
T1 construct: purchased PRESTO-Tango GPCR kit (Roth lab / Addgene)
Summary of the method: (§1)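 Each receptor was expressed from a Tango plasmid in HTLA cells, which stably carry β-arrestin-TEV and a tTA-driven luciferase reporter. Single-point screening used 100 μM final compound for 20 h, and the signal was normalised to PBS control. Concentration-response testing spanned 10^−4 to 10^−15 M.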

NTSR2 = target: T2, NTSR2 (Homo sapiens, UniProt O95665)
T2 construct: purchased PRESTO-Tango GPCR kit (Roth lab / Addgene)
Summary of the method: as §1

GPR171 = target: T3, GPR171 (Homo sapiens, UniProt O14626)
T3 construct: purchased PRESTO-Tango GPCR kit (Roth lab / Addgene)
T3 sequence (O14626 whole entry): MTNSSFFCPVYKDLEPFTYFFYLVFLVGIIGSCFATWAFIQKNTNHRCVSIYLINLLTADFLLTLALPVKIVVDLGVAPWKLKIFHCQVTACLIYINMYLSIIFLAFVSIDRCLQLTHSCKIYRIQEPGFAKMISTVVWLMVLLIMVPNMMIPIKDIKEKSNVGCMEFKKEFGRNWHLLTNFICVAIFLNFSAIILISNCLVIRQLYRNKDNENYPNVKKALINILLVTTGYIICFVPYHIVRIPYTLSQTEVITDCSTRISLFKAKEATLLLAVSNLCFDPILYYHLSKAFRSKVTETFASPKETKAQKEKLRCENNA
Summary of the method: as §1

GPR115 = target: T4, GPR115 (Homo sapiens, UniProt Q8IZF3)
T4 construct: purchased PRESTO-Tango GPCR kit (Roth lab / Addgene)
Summary of the method: as §1

CNR2 = target: T5, CNR2 (Homo sapiens, UniProt P34972)
T5 construct: purchased PRESTO-Tango GPCR kit (Roth lab / Addgene)
T5 sequence (P34972 whole entry): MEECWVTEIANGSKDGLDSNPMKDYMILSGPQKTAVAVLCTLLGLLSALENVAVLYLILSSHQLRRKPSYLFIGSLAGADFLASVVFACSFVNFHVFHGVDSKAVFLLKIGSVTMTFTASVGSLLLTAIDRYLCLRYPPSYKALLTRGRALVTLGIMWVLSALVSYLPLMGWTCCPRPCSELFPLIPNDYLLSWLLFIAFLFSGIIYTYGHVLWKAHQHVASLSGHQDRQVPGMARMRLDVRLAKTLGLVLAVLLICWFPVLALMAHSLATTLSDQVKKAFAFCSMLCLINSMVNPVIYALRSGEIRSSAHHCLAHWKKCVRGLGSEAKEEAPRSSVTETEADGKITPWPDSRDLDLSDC
Summary of the method: as §1

TAAR9 = target: T6, TAAR9 (Homo sapiens, UniProt Q96RI9)
T6 construct: purchased PRESTO-Tango GPCR kit (Roth lab / Addgene)
Summary of the method: as §1

NPY5R = target: T7, NPY5R (Homo sapiens, UniProt Q15761)
T7 construct: purchased PRESTO-Tango GPCR kit (Roth lab / Addgene)
Summary of the method: as §1

OPRK1 = target: T8, OPRK1 (Homo sapiens, UniProt P41145)
T8 construct: purchased PRESTO-Tango GPCR kit (Roth lab / Addgene)
T8 sequence (P41145 whole entry): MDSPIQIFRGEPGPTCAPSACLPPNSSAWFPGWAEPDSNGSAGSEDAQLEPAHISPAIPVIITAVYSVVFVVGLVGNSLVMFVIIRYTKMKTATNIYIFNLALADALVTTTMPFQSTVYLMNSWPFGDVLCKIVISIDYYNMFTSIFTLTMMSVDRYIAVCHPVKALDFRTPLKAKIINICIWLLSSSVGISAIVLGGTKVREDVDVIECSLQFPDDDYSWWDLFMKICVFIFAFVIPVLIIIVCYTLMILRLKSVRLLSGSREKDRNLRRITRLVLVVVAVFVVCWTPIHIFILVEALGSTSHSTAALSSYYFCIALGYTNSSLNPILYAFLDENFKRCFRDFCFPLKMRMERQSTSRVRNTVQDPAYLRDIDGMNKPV
Summary of the method: as §1

CCR6 = target: T9, CCR6 (Homo sapiens, UniProt P51684)
T9 construct: purchased PRESTO-Tango GPCR kit (Roth lab / Addgene)
Summary of the method: as §1

PTH2R = target: T10, PTH2R (Homo sapiens, UniProt P49190)
T10 construct: purchased PRESTO-Tango GPCR kit (Roth lab / Addgene)
T10 sequence (P49190 25-550): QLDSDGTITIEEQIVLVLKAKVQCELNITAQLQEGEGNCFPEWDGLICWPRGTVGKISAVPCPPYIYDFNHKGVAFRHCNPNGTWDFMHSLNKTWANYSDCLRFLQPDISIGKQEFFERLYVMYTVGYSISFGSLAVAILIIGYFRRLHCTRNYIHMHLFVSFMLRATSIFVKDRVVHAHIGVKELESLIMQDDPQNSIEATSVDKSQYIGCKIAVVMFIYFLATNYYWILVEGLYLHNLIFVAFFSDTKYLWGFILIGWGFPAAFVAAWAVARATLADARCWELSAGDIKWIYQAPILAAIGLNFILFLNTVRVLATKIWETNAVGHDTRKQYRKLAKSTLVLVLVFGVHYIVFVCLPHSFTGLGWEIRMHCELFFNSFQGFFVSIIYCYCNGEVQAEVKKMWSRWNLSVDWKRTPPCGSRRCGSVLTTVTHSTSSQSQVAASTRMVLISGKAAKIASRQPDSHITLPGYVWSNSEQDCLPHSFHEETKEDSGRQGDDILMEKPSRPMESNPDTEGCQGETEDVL
Summary of the method: as §1

GPR150 = target: T11, GPR150 (Homo sapiens, UniProt Q8NGU9)
T11 construct: purchased PRESTO-Tango GPCR kit (Roth lab / Addgene)
Summary of the method: as §1

OPN3 = target: T12, OPN3 (Homo sapiens, UniProt Q9H1Y3)
T12 construct: purchased PRESTO-Tango GPCR kit (Roth lab / Addgene)
T12 sequence (Q9H1Y3 whole entry): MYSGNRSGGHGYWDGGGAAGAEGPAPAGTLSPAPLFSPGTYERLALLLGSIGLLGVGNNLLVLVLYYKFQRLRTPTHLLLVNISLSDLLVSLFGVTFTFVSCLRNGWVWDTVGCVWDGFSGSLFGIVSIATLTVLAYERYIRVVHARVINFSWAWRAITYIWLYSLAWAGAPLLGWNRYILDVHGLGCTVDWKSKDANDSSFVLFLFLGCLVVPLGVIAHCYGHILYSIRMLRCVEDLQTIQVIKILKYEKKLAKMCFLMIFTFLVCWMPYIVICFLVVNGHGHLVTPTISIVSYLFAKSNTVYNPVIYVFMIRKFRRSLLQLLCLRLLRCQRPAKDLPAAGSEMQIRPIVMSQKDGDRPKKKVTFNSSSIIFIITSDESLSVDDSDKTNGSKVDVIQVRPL
Summary of the method: as §1

GHRHR = target: T13, GHRHR (Homo sapiens, UniProt Q02643)
T13 construct: purchased PRESTO-Tango GPCR kit (Roth lab / Addgene)
T13 sequence (Q02643 23-423): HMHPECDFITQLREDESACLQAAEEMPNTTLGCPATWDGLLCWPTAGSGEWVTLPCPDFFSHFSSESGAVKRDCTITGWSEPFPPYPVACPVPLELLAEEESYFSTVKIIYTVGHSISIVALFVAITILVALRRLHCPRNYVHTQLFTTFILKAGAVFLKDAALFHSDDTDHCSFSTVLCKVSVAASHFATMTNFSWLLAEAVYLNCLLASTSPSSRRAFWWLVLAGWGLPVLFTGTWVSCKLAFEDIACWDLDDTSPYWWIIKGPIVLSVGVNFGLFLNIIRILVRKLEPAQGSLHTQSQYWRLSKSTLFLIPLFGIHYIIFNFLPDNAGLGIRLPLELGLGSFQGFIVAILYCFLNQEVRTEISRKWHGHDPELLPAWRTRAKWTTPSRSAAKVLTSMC
Summary of the method: as §1

AGTR2 = target: T14, AGTR2 (Homo sapiens, UniProt P50052)
T14 construct: purchased PRESTO-Tango GPCR kit (Roth lab / Addgene)
Summary of the method: as §1

P2RY6 = target: T15, P2RY6 (Homo sapiens, UniProt Q15077)
T15 construct: purchased PRESTO-Tango GPCR kit (Roth lab / Addgene)
Summary of the method: as §1

GPR35 = target: T16, GPR35 (Homo sapiens, UniProt Q9HC97)
T16 construct: purchased PRESTO-Tango GPCR kit (Roth lab / Addgene)
Summary of the method: as §1

GPR4 = target: T17, GPR4 (Homo sapiens, UniProt P46093)
T17 construct: purchased PRESTO-Tango GPCR kit (Roth lab / Addgene)
T17 sequence (P46093 whole entry): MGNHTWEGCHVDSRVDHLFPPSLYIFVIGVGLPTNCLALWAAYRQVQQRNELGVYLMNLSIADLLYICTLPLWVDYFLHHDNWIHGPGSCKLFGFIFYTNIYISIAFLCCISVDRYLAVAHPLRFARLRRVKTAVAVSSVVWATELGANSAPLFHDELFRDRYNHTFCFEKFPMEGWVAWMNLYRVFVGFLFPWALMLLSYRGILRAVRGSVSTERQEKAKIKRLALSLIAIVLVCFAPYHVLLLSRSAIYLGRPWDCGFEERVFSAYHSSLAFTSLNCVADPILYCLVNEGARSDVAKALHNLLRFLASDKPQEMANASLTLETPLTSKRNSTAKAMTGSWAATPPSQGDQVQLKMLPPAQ
Summary of the method: as §1

GPR18 = target: T18, GPR18 (Homo sapiens, UniProt Q14330)
T18 construct: purchased PRESTO-Tango GPCR kit (Roth lab / Addgene)
Summary of the method: as §1

GPR183 = target: T19, GPR183 (Homo sapiens, UniProt P32249)
T19 construct: purchased PRESTO-Tango GPCR kit (Roth lab / Addgene)
Summary of the method: as §1

GRM6 = target: T20, GRM6 (Homo sapiens, UniProt O15303)
T20 construct: purchased PRESTO-Tango GPCR kit (Roth lab / Addgene)
T20 sequence (O15303 25-877): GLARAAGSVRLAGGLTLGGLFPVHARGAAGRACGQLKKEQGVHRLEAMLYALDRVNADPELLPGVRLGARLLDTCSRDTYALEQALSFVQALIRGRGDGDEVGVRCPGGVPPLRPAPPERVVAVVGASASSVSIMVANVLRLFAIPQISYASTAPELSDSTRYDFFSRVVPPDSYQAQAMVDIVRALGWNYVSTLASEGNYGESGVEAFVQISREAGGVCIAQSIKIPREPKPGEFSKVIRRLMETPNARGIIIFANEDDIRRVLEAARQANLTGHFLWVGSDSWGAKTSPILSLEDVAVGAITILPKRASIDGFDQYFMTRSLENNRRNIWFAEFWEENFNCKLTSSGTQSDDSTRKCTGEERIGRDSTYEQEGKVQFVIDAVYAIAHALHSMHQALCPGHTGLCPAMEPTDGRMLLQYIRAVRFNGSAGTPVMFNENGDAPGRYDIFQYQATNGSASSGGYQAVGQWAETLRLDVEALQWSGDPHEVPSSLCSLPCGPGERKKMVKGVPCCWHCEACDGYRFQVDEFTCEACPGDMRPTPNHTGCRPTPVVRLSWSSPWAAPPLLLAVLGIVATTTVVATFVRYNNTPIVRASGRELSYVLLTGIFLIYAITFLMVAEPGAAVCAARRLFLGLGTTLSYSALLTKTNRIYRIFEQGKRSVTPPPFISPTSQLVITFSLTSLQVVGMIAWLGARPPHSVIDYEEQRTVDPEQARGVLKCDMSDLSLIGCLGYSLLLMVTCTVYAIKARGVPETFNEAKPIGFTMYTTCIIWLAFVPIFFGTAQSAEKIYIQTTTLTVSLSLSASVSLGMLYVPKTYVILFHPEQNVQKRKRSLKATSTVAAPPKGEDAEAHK
Summary of the method: as §1

MRGPRX1 = target: T21, MRGPRX1 (Homo sapiens, UniProt Q96LB2)
T21 construct: purchased PRESTO-Tango GPCR kit (Roth lab / Addgene)
Summary of the method: as §1

SSTR2 = target: T22, SSTR2 (Homo sapiens, UniProt P30874)
T22 construct: purchased PRESTO-Tango GPCR kit (Roth lab / Addgene)
T22 sequence (P30874 whole entry): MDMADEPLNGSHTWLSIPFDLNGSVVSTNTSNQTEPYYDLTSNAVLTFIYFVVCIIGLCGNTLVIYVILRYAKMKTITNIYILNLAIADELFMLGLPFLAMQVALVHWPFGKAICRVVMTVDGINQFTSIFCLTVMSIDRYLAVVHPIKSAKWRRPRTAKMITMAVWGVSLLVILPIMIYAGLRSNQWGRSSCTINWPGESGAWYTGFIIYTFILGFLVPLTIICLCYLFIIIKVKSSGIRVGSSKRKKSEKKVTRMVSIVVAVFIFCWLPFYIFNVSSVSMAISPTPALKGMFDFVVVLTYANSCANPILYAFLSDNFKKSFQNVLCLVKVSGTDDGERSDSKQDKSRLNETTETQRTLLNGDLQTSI
Summary of the method: as §1

MC3R = target: T23, MC3R (Homo sapiens, UniProt P41968)
T23 construct: purchased PRESTO-Tango GPCR kit (Roth lab / Addgene)
Summary of the method: as §1

SSTR3 = target: T24, SSTR3 (Homo sapiens, UniProt P32745)
T24 construct: purchased PRESTO-Tango GPCR kit (Roth lab / Addgene)
Summary of the method: as §1

GPR124 = target: T25, GPR124 (Homo sapiens, UniProt Q96PE1)
T25 construct: purchased PRESTO-Tango GPCR kit (Roth lab / Addgene)
Summary of the method: as §1

GRM2 = target: T26, GRM2 (Homo sapiens, UniProt Q14416)
T26 construct: purchased PRESTO-Tango GPCR kit (Roth lab / Addgene)
Summary of the method: as §1

HTR1A = target: T27, HTR1A (Homo sapiens, UniProt P08908)
T27 construct: purchased PRESTO-Tango GPCR kit (Roth lab / Addgene)
Summary of the method: as §1

NPY1R = target: T28, NPY1R (Homo sapiens, UniProt P25929)
T28 construct: purchased PRESTO-Tango GPCR kit (Roth lab / Addgene)
Summary of the method: as §1

CCR8 = target: T29, CCR8 (Homo sapiens, UniProt P51685)
T29 construct: purchased PRESTO-Tango GPCR kit (Roth lab / Addgene)
T29 sequence (P51685 whole entry): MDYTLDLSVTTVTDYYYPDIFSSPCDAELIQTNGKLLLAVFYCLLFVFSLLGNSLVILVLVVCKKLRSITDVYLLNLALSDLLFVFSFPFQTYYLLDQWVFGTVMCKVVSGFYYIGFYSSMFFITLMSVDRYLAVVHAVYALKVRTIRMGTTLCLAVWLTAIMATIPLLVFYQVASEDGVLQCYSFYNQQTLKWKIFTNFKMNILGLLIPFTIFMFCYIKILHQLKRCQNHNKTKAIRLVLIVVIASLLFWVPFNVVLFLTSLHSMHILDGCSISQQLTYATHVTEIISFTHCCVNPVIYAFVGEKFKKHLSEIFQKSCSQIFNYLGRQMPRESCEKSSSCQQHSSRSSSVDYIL
Summary of the method: as §1

MC1R = target: T30, MC1R (Homo sapiens, UniProt Q01726)
T30 construct: purchased PRESTO-Tango GPCR kit (Roth lab / Addgene)
Summary of the method: as §1

GPR174 = target: T31, GPR174 (Homo sapiens, UniProt Q9BXC1)
T31 construct: purchased PRESTO-Tango GPCR kit (Roth lab / Addgene)
Summary of the method: as §1

GPR88 = target: T32, GPR88 (Homo sapiens, UniProt Q9GZN0)
T32 construct: purchased PRESTO-Tango GPCR kit (Roth lab / Addgene)
Summary of the method: as §1

CASR = target: T33, CASR (Homo sapiens, UniProt P41180)
T33 construct: purchased PRESTO-Tango GPCR kit (Roth lab / Addgene)
Summary of the method: as §1

QRFP = target: T34, QRFP (Homo sapiens, UniProt Q96P65)
T34 construct: purchased PRESTO-Tango GPCR kit (Roth lab / Addgene)
T34 sequence (Q96P65 whole entry): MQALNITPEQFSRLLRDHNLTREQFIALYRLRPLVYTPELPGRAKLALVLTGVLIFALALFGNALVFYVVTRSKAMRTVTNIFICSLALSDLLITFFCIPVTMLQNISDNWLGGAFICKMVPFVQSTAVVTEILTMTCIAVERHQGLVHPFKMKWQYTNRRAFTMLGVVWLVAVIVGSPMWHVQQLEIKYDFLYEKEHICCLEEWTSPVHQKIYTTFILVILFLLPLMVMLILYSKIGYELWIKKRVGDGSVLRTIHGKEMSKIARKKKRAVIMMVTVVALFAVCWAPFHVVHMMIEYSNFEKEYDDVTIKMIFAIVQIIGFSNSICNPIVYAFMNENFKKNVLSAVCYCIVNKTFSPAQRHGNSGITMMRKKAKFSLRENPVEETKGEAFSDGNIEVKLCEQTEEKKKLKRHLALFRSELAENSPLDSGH
Summary of the method: as §1

HTR2A = target: T35, HTR2A (Homo sapiens, UniProt P28223)
T35 construct: purchased PRESTO-Tango GPCR kit (Roth lab / Addgene)
Summary of the method: as §1

GPR77 = target: T36, GPR77 (Homo sapiens, UniProt Q9P296)
T36 construct: purchased PRESTO-Tango GPCR kit (Roth lab / Addgene)
Summary of the method: as §1

Row | Compound | GPCR activation (heatmap value) (CNR1) | GPCR activation (heatmap value) (NTSR2) | GPCR activation (heatmap value) (GPR171) | GPCR activation (heatmap value) (GPR115) | GPCR activation (heatmap value) (CNR2) | GPCR activation (heatmap value) (TAAR9) | GPCR activation (heatmap value) (NPY5R) | GPCR activation (heatmap value) (OPRK1) | GPCR activation (heatmap value) (CCR6) | GPCR activation (heatmap value) (PTH2R) | GPCR activation (heatmap value) (GPR150) | GPCR activation (heatmap value) (OPN3) | GPCR activation (heatmap value) (GHRHR) | GPCR activation (heatmap value) (AGTR2) | GPCR activation (heatmap value) (P2RY6) | GPCR activation (heatmap value) (GPR35) | GPCR activation (heatmap value) (GPR4) | GPCR activation (heatmap value) (GPR18) | GPCR activation (heatmap value) (GPR183) | GPCR activation (heatmap value) (GRM6) | other results
1 | CC(C)Cc1ncc(CCCCNC(=N)N)[nH]c1=O [3-Homo] | -0.2406 | -0.1953 | -0.9424 | -0.2915 | 0.8114 | -0.5012 | -0.26 | -0.1244 | -1.378 | -0.1142 | -0.9768 | 0.7317 | 0.5021 | 0.1974 | -0.2248 | 0.1027 | 0.3486 | -0.3064 | -0.6232 | -0.3175 | GPCR activation (heatmap value) (MRGPRX1): 0.1239; GPCR activation (heatmap value) (SSTR2): 0.327; GPCR activation (heatmap value) (MC3R): -0.2762; GPCR activation (heatmap value) (SSTR3): 0.1422; GPCR activation (heatmap value) (GPR124): -0.5918; GPCR activation (heatmap value) (GRM2): -1.403; GPCR activation (heatmap value) (HTR1A): -0.3927; GPCR activation (heatmap value) (NPY1R): -1.44; GPCR activation (heatmap value) (CCR8): -1.739; GPCR activation (heatmap value) (MC1R): -0.8565; GPCR activation (heatmap value) (GPR174): 0.4742; GPCR activation (heatmap value) (GPR88): -0.7293; GPCR activation (heatmap value) (CASR): -0.5038; GPCR activation (heatmap value) (QRFP): 0.525; GPCR activation (heatmap value) (HTR2A): -0.1726; GPCR activation (heatmap value) (GPR77): 0.08307
2 | CC(C)Cc1ncc(CCCNC(=N)N)[nH]c1=O [compound 3] | 0.2678 | -2.304 | 0.9197 | 0.3053 | -0.04866 | -0.2146 | 0.08813 | 0.02999 | 0.5005 | -0.2039 | -0.9206 | 0.9288 | 0.3749 | -0.3239 | 0.4506 | -0.5823 | 0.5113 | 0.788 | -0.9955 | 0.6597 | GPCR activation (heatmap value) (MRGPRX1): -1.215; GPCR activation (heatmap value) (SSTR2): -0.806; GPCR activation (heatmap value) (MC3R): 0.4161; GPCR activation (heatmap value) (SSTR3): -0.3508; GPCR activation (heatmap value) (GPR124): 0.8185; GPCR activation (heatmap value) (GRM2): -1.186; GPCR activation (heatmap value) (HTR1A): -0.02258; GPCR activation (heatmap value) (NPY1R): -0.2056; GPCR activation (heatmap value) (CCR8): -0.8888; GPCR activation (heatmap value) (MC1R): -1.487; GPCR activation (heatmap value) (GPR174): 0.3321; GPCR activation (heatmap value) (GPR88): -0.2878; GPCR activation (heatmap value) (CASR): -0.8261; GPCR activation (heatmap value) (QRFP): 0.1257; GPCR activation (heatmap value) (HTR2A): -0.2048; GPCR activation (heatmap value) (GPR77): 0.5685
